Experimental data from patent US20250346613A1, “BORIC ACID PROTEASOME INHIBITOR AND USE THEREOF” (ARTIVILA BIOPHARMA, priority 2022, published 2025).

What was measured:
Format in all cases: cell-based
[1] = biological target: T1, β5c subunit of the 20S proteasome (Homo sapiens, UniProt P20618+P28074); assay: Proteasome inhibitory activity, β5c subunit (Raji cells treated with compound, lysed, Suc-LLVY-AMC substrate); conditions: proteasome from Raji cells incubated with compound 4 h
T1 construct: The proteasome tested in the present disclosure was derived from Raji cells; endogenous in cells; host or cells: Raji cells
Text: (§1) In the present disclosure, the fluorescent peptide substrate Ac-Ala-Asn-Trp-AMC (abbreviated as Ac-ANW-AMC) and the […] kit containing a fluorescent peptide substrate Suc-Leu-Leu-Val-Tyr-AMC (abbreviated as Suc-LLVY-AMC) (Promega, Item No. G8660) were used to detect the activities of the β5i subunit and β5c subunit of the 20S proteasome, respectively.
(§2) The proteasome tested in the present disclosure was derived from Raji cells, the fluorescent substrate Ac-ANW-AMC was purchased from Roche company, and other reagents were purchased from Sigma company. The experimental system was divided into two parts of cell lysis system and enzyme reaction system. […] The starting concentration of the compound (inhibitor) was 1 μM. It was diluted in a 3-fold serial dilution to a total of 8 concentrations, that is, the administration concentration can be 1 μM, 0.333 μM, 0.111 μM . . . , respectively, and the specific experimental process was described below.
(§3) Raji cells (1×10^6 cells) cryopreserved in liquid nitrogen were thawed rapidly in a water bath at 37° C. The cell pellet was transferred to a 15 mL centrifuge tube, added with 9 mL of fresh medium (Gibco RPMI1640 added with 10% fetal bovine serum and 1% double antibiotics), centrifuged at 120 g for 5 min, inoculated to 25 mL cell culture flasks, and passaged once every 2-3 days.
(§4) The compound was weighed and dissolved in DMSO to a concentration of 10 mM. The compound was then sequentially diluted to concentrations of 200 μM, 66.67 μM, 22.22 μM, 7.41 μM, 2.47 μM, 0.82 μM, 0.27 μM, and 0.091 μM with fresh medium. Raji cells in a good growth status were inoculated into a 48-well cell culture plate at 7×10^5 cells/mL.
(§5) Raji cells in a good growth status were taken and counted. They were then inoculated to a 48-well cell culture plate at 7×10^5 cells/mL. Each 5 μL of the various concentrations of diluted compounds above were taken and added to the culture plate inoculated with cells, and the lowest concentration of compound was 0 μM. The drug bortezomib (Velcade) and ONX-0914 were used as the positive control compounds. All cells were incubated at 37° C. for 4 h.
(§6) The compound-treated cells were sequentially transferred into 1.5 mL centrifuge tubes, centrifuged at 10000 rpm for 2 min, and the supernatants were removed. The cell pellet was resuspended in 1 mL of PBS, centrifuged at 10000 rpm for 2 min, and the supernatant was removed. Cells were resuspended by adding 100 μL of cell lysate (50 mM Tris of pH 7.5, 150 mM NaCl, 5 mM MgCl2, 5 mM ATP, 1 mM DTT, 0.01% NP-40, 1 mM Digitonin, and Cocktail), placed in an ice bath for 30 min, and centrifuged at 13000 rpm for 10 min.
(§7) 2 mg of fluorescent peptide substrate AC-ANW-AMC was dissolved in 424.7 μL of DMSO to obtain an 8 mM stock solution, and stored at −20° C. The stock solution was diluted 100-fold to a final concentration of […] for use in the reaction system. The fluorescent peptide substrate Suc-LLVY-AMC was prepared according to the instructions of the Promega kit.
(§8) Each 20 μL of the prepared proteasome solution above was added to a 96-well white luciferase microplate and added with 25 μL of AC-ANW-AM substrate buffer solution (50 mM Tris of pH 7.5, 150 mM NaCl, 5 mM MgCl2, 5 mM ATP, 80 uM Ac-ANW-AMC and 1 mM DTT) and 25 μL of Suc-LLVY-AMC substrate buffer solution for 10 min of reaction at 37° C. in the dark. Fluorescence values were read at 345 nm/445 nm by using a fluorence microplate reader.
(§9) The data were exported and the inhibition rate in percentage was calculated according to the following formula: Inhibition rate=(maximum signal value-compound signal value)/(maximum signal value−blank signal value)×100%.
(§10) Where the maximum signal was obtained from cell lysates treated with DMSO only, and the blank signal was obtained from wells containing only lysates.

MM.1S cell strain = assay: Inhibitory activity of cell strain (CellTiter-Glo); conditions: Homo sapiens, MM1.S, 72 h incubation
Experimental: The cells used in this experiment were MM.1S cell strain and the detection reagent was CellTiter-Glo (Promega). […] The experimental process was described below. MM.1S cells in the logarithmic growth phase and in a good status were digested into individual cells by trypsin, centrifuged to remove the supernatant, and counted. Cells were diluted and 100 μL of cell suspension per well was added to a 96-well enzyme-coated plate at 1×10^5 cells per well. The wells containing only RPMI1640 complete medium were set as blank control. The 96-well plate was transferred to a 37° C. incubator containing 5% CO2 for 24 h of incubation.
The compound was accurately weighed and dissolved in DMSO to a concentration of 10^−2 M. 10 μL of compound was pipetted to 190 μL of DMSO to given a 5×10^−4 M compound. 6 μL of the compound (5×10^−5 M) was pipetted to a new 96-well microplate containing 194 μL of RPMI1640 complete medium and diluted in a 3-fold gradient dilution. 50 μL of the diluted compound was transferred to the 96-well microplate containing the cells such that the final compound concentrations were 5×10^−7 M, 1.67×10^−7 M, 5.55×10^−8 M, 1.85×10^−8 M, 6.17×10^−9 M, 2.06×10^−9 M, 6.86×10^−10 M, 2.29×10^−10 M, and 0 M. For the 0 M, no compound was added, and the same concentration of DMSO was added. The marketed drug bortezomib was used as a positive control. The 96-well microplate added with compounds was placed in the 37° C. incubator for 72 h of incubation.
At the predetermined detection time, the 96-well microplate to be detected was placed at room temperature, added with 40 μL of detection reagent (CellTiter-Glo) per well, and covered with a dark lid or piece of aluminium foil. The contents were mixed on an orbit oscillator for 10 min for complete cell lysis, with a vibration speed of 150 rpm. Luminescence values were detected on a multifunctional microplate reader (BioTek Synergy H1 Hybrid Multi-Mode Reade).
The data were exported and the percentage inhibition was calculated according to the following formula: Inhibition rate=(maximum signal value-compound signal value)/(maximum signal value−blank signal value)×100%, • wherein maximum signal was obtained from alone DMSO-treated cells, and blank signal was obtained from wells containing only culture medium.

[2] = biological target: T2, β5i subunit of the 20S proteasome (Homo sapiens, UniProt P20618+P28062); assay: Proteasome inhibitory activity, β5i subunit (Raji cells treated with compound, lysed, Ac-ANW-AMC substrate); conditions: proteasome from Raji cells incubated with compound 4 h
T2 construct: The proteasome tested in the present disclosure was derived from Raji cells; endogenous in cells; host or cells: Raji cells
Text: as §1, §2, §3, §4, §5, §6, §7, §8, §9, §10

Row | SMILES | IC50 [1] | IC50 (MM.1S cell strain) | IC50 [2]
1 | CC(C(=O)NCc1cccc(-c2ccccc2)n1)C(=O)N[C@@H](Cc1coc2ccccc12)B(O)O (stereo partly drawn) [Example 57, ((1R)-2-(benzofuran-3-yl)-1-(2-methyl-3-oxo-3-(((6-phenylpyridin-2-yl)methyl)amino)propionamido)ethyl)boric acid] | ≤ 50 nM | ≤ 50 nM | ≤ 50 nM
2 | O=C(/C=C/C(=O)N[C@@H](Cc1ccccc1)B(O)O)NCc1cccc(-c2ccccc2)n1 [Example 14, (R,E)-(1-(4-oxo-4-(((6-phenylpyridin-2-yl)methyl)amino)but-2-enamido)-2-phenylethyl)boric acid] | 50 to 200 nM | 50 to 200 nM | 50 to 200 nM
3 | O=C(CCC(=O)N[C@@H](Cc1ccccc1)B(O)O)NCc1ccccc1 [Example 16, (R)-(1-(4-(benzylamino)-4-oxobutanoylamino)-2-phenylethyl)boric acid] | 50 to 200 nM | 200 to 500 nM | ≤ 50 nM
4 | Cc1ccc(C[C@H](NC(=O)C(Cc2ccccc2)C(=O)NCc2ccc3[nH]ccc3c2)B(O)O)cc1 (stereo partly drawn) [Example 90, ((1R)-1-(3-(((1H-indol-5-yl)methyl)amino)-2-benzyl-3-oxopropionamido)-2-(p-tolyl)ethyl)boric acid] | ≤ 50 nM | ≤ 50 nM | ≤ 50 nM
5 | COc1cccc(CNC(=O)CC(=O)N[C@@H](Cc2ccc(C)cc2)B(O)O)c1 [Example 50, (R)-(1-(3-((3-methoxybenzyl)amino)-3-oxopropionylamino)-2-(p-tolyl)ethyl)boric acid] | ≤ 50 nM | ≤ 50 nM | ≤ 50 nM
6 | Cc1ccc(C[C@H](NC(=O)CC(=O)NCc2cccc(-c3ccccc3)c2)B(O)O)cc1 [Example 27, (R)-(1-(3-(([1,1′-biphenyl]-3-ylmethyl)amino)-3-oxopropionamido)-2-(p-tolyl)ethyl)boric acid] | ≤ 50 nM | ≤ 50 nM | ≤ 50 nM
7 | COc1cccc(CNC(=O)C(Cc2ccccc2)C(=O)N[C@@H](Cc2ccc(C)cc2)B(O)O)c1 (stereo partly drawn) [Example 65, ((1R)-1-(2-benzyl-3-((3-methoxybenzyl)amino)-3-oxopropionamido)-2-(p-tolyl)ethyl)boric acid] | ≤ 50 nM | ≤ 50 nM | ≤ 50 nM
8 | Cc1ccc(C[C@H](NC(=O)C(C)C(=O)NCc2ccccc2)B(O)O)cc1 (stereo partly drawn) [Example 38, ((1R)-1-(3-(benzylamino)-2-methyl-3-oxopropionamido)-2-(p-tolyl)ethyl)boric acid] | 50 to 200 nM | 200 to 500 nM | 50 to 200 nM
9 | COc1cccc(CNC(=O)CC(=O)N[C@@H](CC(C)C)B(O)O)c1 [Example 48, (R)-(1-(3-((3-methoxybenzyl)amino)-3-oxopropionamido)-3-methylbutyl)boric acid] | ≤ 50 nM | ≤ 50 nM | ≤ 50 nM
10 | COc1cccc(CNC(=O)C(CC2CC2)C(=O)N[C@@H](Cc2coc3ccccc23)B(O)O)c1 (stereo partly drawn) [Example 81, ((1R)-2-(benzofuran-3-yl)-1-(2-(cyclopropylmethyl)-3-((3-methoxybenzyl)amino)-3-oxopropionamido)ethyl)boric acid] | ≤ 50 nM | ≤ 50 nM | ≤ 50 nM
11 | COc1cccc(CNC(=O)C(C)C(=O)N[C@@H](Cc2coc3ccccc23)B(O)O)c1 (stereo partly drawn) [Example 9] | ≤ 50 nM | ≤ 50 nM | ≤ 50 nM
12 | COc1cccc(CCNC(=O)C(C)C(=O)N[C@@H](Cc2ccc(C)cc2)B(O)O)c1 (stereo partly drawn) [Example 62, ((1R)-1-(3-((3-methoxyphenylethyl)amino)-2-methyl-3-oxopropionamido)-2-(p-tolyl)ethyl)boric acid] | ≤ 50 nM | ≤ 50 nM | ≤ 50 nM
13 | COc1cccc(CNC(=O)C(CC2CCCCC2)C(=O)N[C@@H](Cc2coc3ccccc23)B(O)O)c1 (stereo partly drawn) [Example 84, ((1R)-2-(benzofuran-3-yl)-1-(2-(cyclohexylmethyl)-3-((3-methoxybenzyl)amino)-3-oxopropionamido)ethyl)boroic acid] | ≤ 50 nM | ≤ 50 nM | ≤ 50 nM
14 | COc1cccc(CNC(=O)C(C(=O)N[C@@H](Cc2coc3ccccc23)B(O)O)C(C)C)c1 (stereo partly drawn) [Example 75, ((1R)-2-(benzofuran-3-yl)-1-(2-((3-methoxybenzyl)carbamoyl)-3-methylbutanamido)ethyl)boric acid] | ≤ 50 nM | ≤ 50 nM | ≤ 50 nM
15 | Cc1ccc(C[C@H](NC(=O)C(C)C(=O)NCc2cccc(-c3ccccc3)n2)B(O)O)cc1 (stereo partly drawn) [Example 45, ((1R)-1-(2-methyl-3-oxo-3-(((6-phenylpyridin-2-yl)methyl)amino)propionamide)-2-(p-tolyl)ethyl)boric acid] | ≤ 50 nM | ≤ 50 nM | ≤ 50 nM
16 | CC(C)C(C(=O)NCc1ccc(Cl)cc1Cl)C(=O)N[C@@H](Cc1coc2ccccc12)B(O)O (stereo partly drawn) [Example 89, ((1R)-2-(benzofuran-3-yl)-1-(2-((2,4-dichlorobenzyl)carbamoyl)-3-methylbutanamido)ethyl)boric acid] | ≤ 50 nM | ≤ 50 nM | ≤ 50 nM
17 | CC(C(=O)NCc1cccc(-c2ccccc2)n1)C(=O)N[C@@H](Cc1ccccc1)B(O)O (stereo partly drawn) [Example 1, ((1R)-1-(2-methyl-3-oxo-3-(((6-phenylpyridin-2-yl)methyl)amino)propionylamino)-2-phenylethyl)boric acid] | 50 to 200 nM | 50 to 200 nM | 50 to 200 nM
18 | Cc1ccc(C[C@H](NC(=O)C(C)C(=O)NC2CCCCC2)B(O)O)cc1 (stereo partly drawn) [Example 42, ((1R)-1-(3-(cyclohexylamino)-2-methyl-3-oxopropionamido)-2-(p-tolyl)ethyl)boric acid] | ≤ 50 nM | 50 to 200 nM | ≤ 50 nM
